Holding throughout (format): cell-based
In one assay the target is T1, MycN protein (Homo sapiens, UniProt P04198).
T1 construct: either 2×10^6 of L-363 (human leukemia cell line) or SKNBE2 (neuroblastoma cell line) cells; endogenous in cells; host or cells: SKNBE2 / SK-N-BE(2) neuroblastoma cells
T1 sequence (P04198 1-464): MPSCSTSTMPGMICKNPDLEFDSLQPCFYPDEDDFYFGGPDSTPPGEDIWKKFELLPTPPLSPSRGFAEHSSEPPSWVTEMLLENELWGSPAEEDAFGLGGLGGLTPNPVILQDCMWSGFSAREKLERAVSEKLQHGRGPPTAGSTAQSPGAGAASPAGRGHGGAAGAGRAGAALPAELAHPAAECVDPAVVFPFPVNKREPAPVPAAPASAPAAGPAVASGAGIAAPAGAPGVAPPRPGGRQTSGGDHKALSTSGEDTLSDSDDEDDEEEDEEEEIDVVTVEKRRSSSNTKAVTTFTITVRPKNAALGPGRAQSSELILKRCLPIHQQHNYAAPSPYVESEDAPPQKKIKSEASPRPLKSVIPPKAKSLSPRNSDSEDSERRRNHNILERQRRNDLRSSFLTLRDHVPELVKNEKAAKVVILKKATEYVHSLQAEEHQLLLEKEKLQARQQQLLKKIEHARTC
The experiment in a line: Degradation of MycN protein, Western blot, SKNBE2 cells (Example 160). To be noted: for inhibition at 2 µM: 6 h. As for the experimental part:
(§1) In a T150 flask was plated either 2×10^6 of L-363 (human leukemia cell line) or SKNBE2 (neuroblastoma cell line) cells in a total of 30 mL containing Roswell Park Memorial Institute (RPMI) 1640 Medium (Thermo Fisher, Cat. #11875-085), 10% Fetal Bovine Serum (FBS, Thermo Fisher: Cat. #10437-028), 1% Penicillin/streptomycin (Thermo Fisher: Cat. #10378016), and 1% Amophotericin B (Thermo Fisher, Cat. #15290026). The cells were split every 72 hours by reseeding the L-363 or SKNBE2 cells, and the passage number was noted. It is noteworthy that cell cultures that were above 40 passages were not used, and most experiments were done with cells of less than 30 passages.
(§2) In a 6-well cell culture plate, a total of 3 mL of either 1×10^6 cells/mL of L-363 or SKNBE2 cells were seeded, resulting in a total of 3×10^6 cells per well. To each well containing 3 mL of either L-363 or SKNBE2 cell line was added 6 uL of MycN modulating compound (1 mM) and the resulting plate was shaken from left to right, and not swirled. After 6 hours, the cells were placed in a 15 mL falcon tube and spun at 500 Gs at 4° C. in a swinging bucket centrifuge. The medium was then carefully removed without disturbing the pellet. The pellet was then washed with 3 mLs of chilled phosphate buffered saline (PBS) and subjected to the spin cycle. PBS was then removed and the pellet was lysed in 200 uL of radioimmunoprecipitation (RIPA) lysis buffer (Thermo Fisher: Cat. #899000) that is supplemented with protease and phosphatase inhibitors (Thermo Fisher: Cat. #A32959). The cell lysate was then subjected to spinning in a centrifuge for 10 minutes at 13000 G at 4° C. The supernatant was then carefully transferred to a fresh eppendorf tube without disturbing the pellet (˜180 uL). The protein concentration of the cell lysate was then determined by using a bicinchoninic acid (BCA assay) according to manufacturer's protocol (Thermo Fisher: Cat. #23227).
(§3) Cell lysate, approximately 25 ug-30 ug, was loaded per well in a 4-20% polyacrylamide gel (Biorad. Cat. #5671094). After running the dye front off of the gel, the gel was transferred to a nitrocellulose membrane (Biorad: Cat. #1704159) using the transblot turbo system (Biorad: Cat. #1704150) according to manufacturer's protocol. After transferring for 30 minutes, the membrane was blocked with 5% BSA for 1 hour at room temperature. The BSA was then washed off and the primary antibody of choice (1:500) was added, and the membrane was incubated with the primary antibody at 4° C. for overnight. The next morning, the primary antibody was removed and the membrane was washed with 1×-TBST for 10 minutes and repeated three more times. Following the last wash, a secondary antibody (Molecular Devices. Cat. #R8209 or R8208) was added at 1:5000 dilution and incubated for 1 hour at room temperature. Following the incubation with the secondary antibody, the membrane was washed with 1×-TBST for 10 minutes and repeated three more times. Following the last wash, the membrane was washed with de-ionized water twice and dried for at least two hours. Once the membrane is completely dry, the Molecular Devices Spectra Max western system was used to observe the bands. The western image was saved and the band density was measured with ImageJ software.

A further assay addresses T2, MycC protein (Homo sapiens, UniProt P01106).
T2 construct: either 2×10^6 of L-363 (human leukemia cell line) or SKNBE2 (neuroblastoma cell line) cells; endogenous in cells; host or cells: L-363 / L363 human leukemia cells
The experiment in a line: Degradation of MycC protein, Western blot, L-363 cells (Example 160). The settings on record: for inhibition at 2 µM: 6 h. As for the experimental part:
as §1, §2, §3
For orientation: Immunoblotting shows a protein as a band on a membrane.

The target in the next assay is T3, MycN protein (n-myc) (Homo sapiens, UniProt P04198).
T3 construct: either 2×10^6 of L-363 (human leukemia cell line) or SKNBE2 (neuroblastoma cell line) cells; endogenous in cells; host or cells: SKNBE2 / SK-N-BE(2) neuroblastoma cells
T3 sequence (P04198 1-464): T1 sequence (P04198 1-464)
The experiment in a line: Degradation of MycN protein, 24 h treatment, JESS Western, SK-N-BE(2) cells (Example 161). The settings on record: SKNBE2 cells. As for the experimental part:
(§4) For L363 cells (suspension), 1E6 cells were plated into each well of a 6 well plate. For SK-N-BE(2) cells (adherent), 5E5 cells were plated into each well of a 6 well dish. […] All compounds were diluted to 10 mM in DMSO. Cells were treated with the compound for 24 hrs, then for both cell types, media containing cells were removed from wells into a 15 ml centrifuge tube, and remaining adherent SK-N-BE(2) cells were also scraped from the wells into the appropriate tubes. Tubes were centrifuged, cells were washed with PBS then re-centrifuged to pellet cells. A RIPA buffer cocktail was added to the cells on ice for 5 mins. Cell lysates were clarified by centrifugation and stored at −80 degrees until required. BCA assay was performed on each lysate to determine the protein concentration.
(§5) For validation studies of antibodies, lysates and antibodies were used at a number of concentrations (Lysates: 2, 1, 0.2 mg/ml; Antibodies: 1 in 50, 1 in 200 dilution). Once an appropriate lysate concentration and antibody concentration was determined, samples were screened in the JESS technology (Protein Simple, San Jose, CA—https://www.proteinsimple.com/jess.html).
(§6) Target protein antibodies (n-myc and c-myc) were detected in the chemi-luminescence channel and loading controls (tubulin and GAPDH) were detected using a Near Infra Red (NIR) labeled secondary antibody.
(§7) For SK-N-EB2 adherent cells, 5E5 cells in 1.9 mls media were plated into 6 well dishes and incubated for 24 hrs. […] Cells were scrapped off the plate, centrifuged, washed with PBS, centrifuged, then a RIPA buffer cocktail added to the cells (100 ul), centrifuged and stored at −80 for later analysis. For L363 suspension cells, 1E6 cells were plated into […] (950 ul media) and incubated for 24 hrs. […] Cells were aspirated into tubes, centrifuged, washed with PBS, centrifuged, then a RIPA buffer cocktail added to the cells (100 ul), centrifuged and stored at −80 for later analysis.
(§8) For Western blot, a BCA (total protein) assay was run on all samples, these were then run in batches of 5 compounds plus control (DMSO) on each Western blot run—n-myc and c-myc were run in separate experiments in the chemiluminescence channel. Both tubulin and GAPDH were run as loading controls in all lanes in the near infra red channel.

In another assay the target is T4, MycC protein (c-myc) (Homo sapiens, UniProt P01106).
T4 construct: either 2×10^6 of L-363 (human leukemia cell line) cells; endogenous in cells; host or cells: L-363 / L363 human leukemia cells
T4 sequence (P01106 whole entry): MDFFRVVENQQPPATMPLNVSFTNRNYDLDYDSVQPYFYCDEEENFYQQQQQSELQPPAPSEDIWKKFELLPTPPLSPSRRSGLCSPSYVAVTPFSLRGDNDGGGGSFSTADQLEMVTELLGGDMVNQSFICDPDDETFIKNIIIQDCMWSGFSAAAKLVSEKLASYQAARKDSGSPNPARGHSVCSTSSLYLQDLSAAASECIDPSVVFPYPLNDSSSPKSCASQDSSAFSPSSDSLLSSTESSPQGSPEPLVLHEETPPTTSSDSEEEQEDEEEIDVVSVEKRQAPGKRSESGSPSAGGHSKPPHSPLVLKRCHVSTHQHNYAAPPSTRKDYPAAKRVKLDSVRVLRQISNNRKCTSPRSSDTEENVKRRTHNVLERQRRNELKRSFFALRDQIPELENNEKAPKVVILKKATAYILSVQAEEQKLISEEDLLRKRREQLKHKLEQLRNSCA
The experiment in a line: Degradation of MycC protein, 24 h treatment, JESS Western, L363 cells (Example 161). To be noted: L-363 cells. As for the experimental part: as §4, §5, §6, §7, §8

Where only a bound is given, the exact number is not on record here.

T2 sequence (P01106 whole entry): as above

Take `CN(c1nccc(Nc2cc(C3CC3)[nH]n2)n1)[C@H]1CC[C@H](NC(=O)C2CCCC(C(F)(F)F)C2)CC1` (stereo partly drawn) [113 F1]: the “% Degradation of MycN (SKNBE2) 6 h, 2 μM” value on MycN protein is given as “* (degradation <20%)”. The inhibition – broadly, the change of the read-out against control, counted positive when it falls – at 2 µM against MycC protein is 50 to 79%.

For `CN(c1nccc(Nc2cc(C3CC3)[nH]n2)n1)[C@H]1CC[C@H](NC(=O)C2CCCC(C(F)(F)F)C2)CC1` (stereo partly drawn) [113 F2], the “% Degradation of MycN (SKNBE2) 6 h, 2 μM” value on MycN protein was “*** (degradation 50-79%)”. Moreover, at MycC protein, the “% Degradation of MycC (L-363) 6 h, 2 μM” value is reported as “*** (degradation 50-79%)”.

Regarding `CN(c1nccc(Nc2cc(C3CC3)[nH]n2)n1)C1CCN(CC(=O)Nc2cccc(C(F)(F)F)c2)CC1` [Compound 1, 2-(4-((4-((5-cyclopropyl-1H-pyrazol-3-yl)amino)pyrimidin-2-yl)(methyl)amino)piperidin-1-yl)-N-(3-(trifluoromethyl)phenyl)acetamide], the results for the inhibition at 2 µM against MycN protein and against MycC protein were 50 to 79% and 80 to 100%, respectively.

As to `CN(c1nccc(Nc2cc(C3CC3)[nH]n2)n1)C1CCN(CC(=O)NC2Cc3ccc(C#N)cc3C2)CC1` (stereo not drawn) [Compound 2, N-(5-cyano-2,3-dihydro-1H-inden-2-yl)-2-(4-((4-((5-cyclopropyl-1H-pyrazol-3-yl)amino)pyrimidin-2-yl)(methyl)amino)piperidin-1-yl)acetamide], the inhibition at 2 µM at MycN protein and against MycC protein was 80 to 100% each time.

With `CN(c1nccc(Nc2cc(C3CC3)[nH]n2)n1)C1CC2(C1)CN(C(=O)c1cccc(C(F)(F)F)c1)C2` [Compound 34, (6-((4-((5-Cyclopropyl-1H-pyrazol-3-yl)amino)pyrimidin-2-yl)(methyl)amino)-2 azaspiro[3.3]heptan-2-yl)(3-(trifluoromethyl)phenyl)methanone], at MycN protein (n-myc), the inhibition at 0.5 µM was < 20%, the inhibition at 1 µM is < 20%, the inhibition at 3 µM lay in the range of 80 to 100% and the inhibition at 6 µM was in the range of 80 to 100%. Further, at MycC protein (c-myc), the inhibition at 3 µM was < 20% and the inhibition at 6 µM lay within 80 to 100%.

`CN(c1nccc(Nc2cc(C3CC3)[nH]n2)n1)C1CC2(C1)CN(S(=O)(=O)c1cnn(C)c1)C2` [Compound 35, N4-(5-Cyclopropyl-1H-pyrazol-3-yl)-N2-methyl-N2-{2-[(1-methyl-1H-pyrazol-4-yl)sulfonyl]-2-azaspiro[3.3]heptan-6-yl}pyrimidine-2,4-diamine]: at MycN protein (n-myc), the inhibition at 0.5 µM is < 20%, the inhibition at 1 µM is 20 to 49%, the inhibition at 3 µM fell in the range of 50 to 79% and the inhibition at 6 µM lay in the range of 80 to 100%. In addition, on MycC protein (c-myc), the inhibition at 0.5 µM lay within 20 to 49%, the inhibition at 1 µM lay in the range of 50 to 79%, the inhibition at 3 µM lay in the range of 80 to 100% and the inhibition at 6 µM lay within 80 to 100%.

With `CN1CCC(Nc2nccc(Nc3cc(C4CC4)[nH]n3)n2)CC1` [Compound 37, N4-(5-Cyclopropyl-1H-pyrazol-3-yl)-N2-(1-methylpiperidin-4-yl)pyrimidine-2,4-diamine], on MycN protein (n-myc), the inhibition at 1 µM is < 20%, the inhibition at 3 µM is 20 to 49% and the inhibition at 6 µM fell in the range of 50 to 79%. On MycC protein (c-myc), the inhibition at 3 µM is < 20% and the inhibition at 6 µM was in the range of 80 to 100%.

As to `CN(c1nccc(Nc2cc(C3CC3)[nH]n2)n1)C1CCN(C2CC2)CC1` [Compound 38, N4-(5-Cyclopropyl-1H-pyrazol-3-yl)-N2-(1-cyclopropylpiperidin-4-yl)-N2-methylpyrimidine-2,4 diamine], at MycN protein (n-myc), the inhibition at 0.5 µM fell in the range of 20 to 49%, the inhibition at 1 µM was 50 to 79%, the inhibition at 3 µM fell in the range of 80 to 100% and the inhibition at 6 µM is 80 to 100%. At MycC protein (c-myc), this compound registered an inhibition at 0.5 µM of 50 to 79%, an inhibition at 1 µM of 80 to 100%, an inhibition at 3 µM of 80 to 100% and an inhibition at 6 µM of 80 to 100%.

In the case of `CN(c1nccc(Nc2cc(C3CC3)[nH]n2)n1)C1CCN(Cc2cccc(S(C)(=O)=O)c2)CC1` [Compound 39, N4-(5-Cyclopropyl-1H-pyrazol-3-yl)-N2-methyl-N2-(1-(3-(methylsulfonyl)benzyl)piperidin-4-yl)pyrimidine-2,4-diamine], at MycN protein (n-myc), the inhibition at 3 µM is 80 to 100% and the inhibition at 6 µM fell in the range of 80 to 100%. Moreover, on MycC protein (c-myc), the inhibition at 1 µM is 50 to 79%, the inhibition at 3 µM lay in the range of 80 to 100% and the inhibition at 6 µM lay within 80 to 100%.

In the case of `CN(c1nccc(Nc2cc(C3CC3)[nH]n2)n1)C1CCN(Cc2cc(F)cc(F)c2)CC1` [Compound 40, N4-(5-Cyclopropyl-1H-pyrazol-3-yl)-N2-(1-(3,5-difluorobenzyl)piperidin-4-yl)-N2-methylpyrimidine-2,4-diamine], on MycN protein (n-myc), the inhibition at 0.5 µM was < 20%, the inhibition at 1 µM lay within 20 to 49%, the inhibition at 3 µM was 80 to 100% and the inhibition at 6 µM was 80 to 100%. Also, at MycC protein (c-myc), the inhibition at 0.5 µM was < 20%, the inhibition at 1 µM was in the range of 80 to 100%, the inhibition at 3 µM is 80 to 100% and the inhibition at 6 µM was 80 to 100%.

The values above are taken from patent publication US20230322722A1, “MODULATORS OF MYC FAMILY PROTO-ONCOGENE PROTEIN” (Nalo Therapeutics, priority 2020, published 2023).
